Laboratory results from PMC13198932, “Pyrazolone-based ERO1 inhibitors in ERO1-driven triple-negative breast cancer and SEPN1-related myopathy: Structure–activity relationship and therapeutic potential” (Pharmacological research, 2025).
Several values for one entry are separate records, joined by “and”; a condition that tells them apart may be missing. Equal entries are not always repeated. Entries after “also recorded” stand apart in the source; their conditions may differ. Where two headings read alike, the source gives them in different places.

Tests used:
recombinant ERO1A = target: T1, recombinant ERO1A (Mus musculus, UniProt Q8R180); assay: AUR-based kinetic assay of ERO1A activity (recombinant ERO1A and PDIA1, HRP, Amplex Ultra Red); format: biochemical; settings: for IC50: Table 1 in Fig. 3
T1 construct: GST-SMT3-mouse ERO1A (residues 43–464); GST-SMT3 (GST-SUMO) (N, cleaved yes); made in house; host or cells: E. coli Rosetta DE3 (Novagen)
T1 sequence (Q8R180 43-464): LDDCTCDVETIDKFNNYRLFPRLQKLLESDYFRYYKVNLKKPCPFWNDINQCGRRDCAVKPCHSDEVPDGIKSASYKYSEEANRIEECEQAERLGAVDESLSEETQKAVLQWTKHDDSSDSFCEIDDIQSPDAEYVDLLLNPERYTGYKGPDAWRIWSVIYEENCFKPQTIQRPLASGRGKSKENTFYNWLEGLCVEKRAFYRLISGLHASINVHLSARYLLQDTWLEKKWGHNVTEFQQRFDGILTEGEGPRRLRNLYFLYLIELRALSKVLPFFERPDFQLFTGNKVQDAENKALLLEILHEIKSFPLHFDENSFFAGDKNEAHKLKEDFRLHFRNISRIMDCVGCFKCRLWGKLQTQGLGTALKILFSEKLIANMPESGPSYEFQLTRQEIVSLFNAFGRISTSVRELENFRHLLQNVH
Description: A GST-SMT3-mouse ERO1A (residues 43–464) and His-tagged PDIA1 [30] were expressed in the Rosetta DE3 bacteria (Novagen) and purified as described in [29, 31]. The GST-SMT3 and His tags were cleaved using Ulp protease (Z03691, GenScript) and thrombin protease (T6884, Merck), respectively. Successful tag removal was confirmed by a shift to a lower molecular weight for ERO1A on SDS-PAGE and by the absence of signal in anti-His immunoblotting for PDIA1.
The kinetic assay of ERO1A activity is based on a reaction involving recombinant ERO1A and PDIA1 proteins, horseradish peroxidase (Worthington), and 5 μM Amplex Ultra Red, as detailed in [29]. The effect of ERO1A inhibitors was evaluated by preincubating the compounds with ERO1A and measuring the inhibition of the linear reaction rate, and the corresponding IC50 values were determined using Prism 10 (GraphPad).
EN460 and 16 newly synthesized derivatives (I24–I40) (except for I31, which was not evaluated due to potential toxicity associated with its CN group) were evaluated for their ability to inhibit ERO1-dependent AUR fluorescence using a kinetic assay with recombinant ERO1 and PDIA1, as previously described (Figs. 3A and 3B). Raw kinetic data showing AUR fluorescence over time in reactions containing reduced ERO1, PDIA1 and EN460-derivatives are presented in Fig. Sup.1 A and Sup. 1B. Reaction rates, measured in presence or absence of varying concentrations of each compound, were used to calculate IC50 values, defined as the concentration required to inhibit 50 % of ERO1 enzymatic activity (Figs. 3C, 3D and Fig. Sup1C).

recombinant PDI = recombinant PDI (Homo sapiens, UniProt P07237); assay: PDI activity assay (insulin transhydrogenase / insulin turbidity assay); format: biochemical; settings: 25 μM, 15 min incubation
recombinant PDI, sequence (P07237 18-508, species assumed): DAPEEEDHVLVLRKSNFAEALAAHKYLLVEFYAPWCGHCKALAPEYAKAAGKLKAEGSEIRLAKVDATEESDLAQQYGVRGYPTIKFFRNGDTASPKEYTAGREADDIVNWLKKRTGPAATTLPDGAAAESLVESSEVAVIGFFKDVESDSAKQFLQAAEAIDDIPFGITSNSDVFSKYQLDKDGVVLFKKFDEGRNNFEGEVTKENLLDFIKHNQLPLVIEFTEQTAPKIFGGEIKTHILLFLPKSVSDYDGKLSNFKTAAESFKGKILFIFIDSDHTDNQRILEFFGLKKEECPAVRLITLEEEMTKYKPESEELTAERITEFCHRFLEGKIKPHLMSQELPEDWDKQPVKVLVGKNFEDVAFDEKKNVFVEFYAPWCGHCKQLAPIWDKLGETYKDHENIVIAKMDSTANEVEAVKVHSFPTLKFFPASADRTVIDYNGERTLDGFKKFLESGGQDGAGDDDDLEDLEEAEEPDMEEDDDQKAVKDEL
Experimental: PDI activity was assessed using an insulin transhydrogenase assay. Bovine insulin (1 mg/mL) in sodium phosphate buffer, pH 7.0, containing 2 mM EDTA, was incubated with 1.4 μM recombinant PDI in the presence of vehicle (1 % DMSO) or various concentrations of isoquercetin (30 or 60 μM), EN460, I2, I26, or I29 (1, 5, or 25 μM) for 15 min. The turbidimetric assay of insulin disulfide reduction by PDI was initiated by adding 1 mM dithiothreitol, and the reaction was monitored at 650 nm for 80 min. PDI activity is presented as a percentage of the vehicle control.

[1] = target: T2, ERO1 in MDA-MB-231 breast cancer cells (Homo sapiens, UniProt Q96HE7); assay: ERO1 redox state by non-reducing immunoblot in MDA-MB-231 cells; format: cell-based
T2 construct: Non-reducing Immunoblot of endogenous ERO1 in lysates of vehicle-treated MDAMB231; endogenous in cells; host or cells: MDA-MB-231
T2 sequence (Q96HE7 24-468): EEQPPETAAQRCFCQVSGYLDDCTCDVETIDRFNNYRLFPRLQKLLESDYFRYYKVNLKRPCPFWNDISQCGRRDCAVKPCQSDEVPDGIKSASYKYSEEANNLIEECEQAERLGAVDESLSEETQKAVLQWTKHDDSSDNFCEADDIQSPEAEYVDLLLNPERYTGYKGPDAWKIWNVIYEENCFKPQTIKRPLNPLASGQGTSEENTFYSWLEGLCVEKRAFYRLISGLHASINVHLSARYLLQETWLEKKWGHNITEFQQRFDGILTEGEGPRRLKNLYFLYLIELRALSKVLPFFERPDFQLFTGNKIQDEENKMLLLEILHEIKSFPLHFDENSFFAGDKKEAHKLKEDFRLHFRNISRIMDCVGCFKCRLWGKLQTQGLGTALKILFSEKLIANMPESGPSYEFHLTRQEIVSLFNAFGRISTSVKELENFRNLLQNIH
Experimental: MDAMB231 and E0771 cells were maintained in Dulbecco’s Modified Eagle’s Medium supplemented with 1 % fetal bovine serum and seeded at 70 % confluency in six-well plates one day prior to the experiment. Cells were treated with DTT (10 mM) and/or ERO1A inhibitors for 1–5 h. At the time of collection, phosphate-buffered saline containing 10 mM NEM was added, and cells were incubated on ice for 10 min in lysis buffer (50 mM Tris-HCl, pH 7.4; 150 mM NaCl; 1 % Triton X-100; 0.1 % SDS; 1 % sodium deoxycholate; protease inhibitors; and 10 mM NEM). Protein concentrations were determined using the BCA assay, and equal amounts of protein were separated by non-reducing SDS-PAGE followed by immunoblotting with a polyclonal antibody against ERO1A [33].

[2] = test system: WT and SEPN1 KD C2C12 cells; assay: Super resolution microscopy (SIM) of ER volume and mitochondrial network; format: cell-based; settings: for mitochondrial network (total branch length): SEPN1 KD cells; for ER volume: WT and SEPN1 KD cells
Description: Structured illumination microscopy (SIM) was done on a Nikon SIM system with a 100 × 1.49 objective. Briefly, randomly selected cells were imaged at laser excitation of 405 nm (nuclei), 561 nm (ER), and 640 nm (mitochondria) with a 3D-SIM acquisition protocol. SIM images were quantified with ImageJ. After background normalization, the ER signals was segmentated to calculate the volume of the ER expressed as fraction of the cell. The segmentated mitochondrial signal was followed by the skeletonize function of ImageJ to perform mitochondria network analysis. We then applied the Analyze Skeleton 2D/3D plugin of ImageJ to measure each cell total branch length, expressed as μm.

[3] = compounds dissolved in DMSO, preincubated with ERO1A, NA stands for not active, read-out: IC50
[4] = logarithm of IC50 in μM, compounds dissolved in DMSO, read-out: Log IC50 (confidence intervals) (converted)

SMILES | IC50 (recombinant ERO1A; [3]) | IC50 (recombinant ERO1A; [4]) | PDI activity (percentage of the vehicle control) (recombinant PDI) | ERO1 reduction (redox state) ([1]; MDA-MB-231, 20 μM, Fig. Sup. 2A) | ERO1 reduction ([1]; MDA-MB-231, 20 μM, dose-response 1–20 μM, Fig. 4B) | concentration achieving complete ERO1 reduction ([1]; MDA-MB-231, dose-response 5–20 μM, Fig. Sup. 2B) | mitochondrial network (total branch length) [2] | ER volume [2] | IC50 / potency relative to EN460 (recombinant ERO1A; compared with EN460) | ERO1 inhibitory activity (in words) (recombinant ERO1A; compounds dissolved in DMSO) | ERO1 reduction compared with EN460 ([1]; MDAMB231, Fig. 4D)
O=C(O)c1cc(N2N=C(C(F)(F)F)/C(=C\c3ccc(-c4ccccc4)o3)C2=O)ccc1Cl [EN460, reference compound] | 6 µM | 5.89 µM | inhibited PDI activity | efficiently reduced ERO1 | near-complete reduction of ERO1 | 15 µM | selectively improved the mitochondrial network | did not change substantially |  |  | 
O=C1/C(=C/c2ccc(-c3ccccc3)o2)C(C(F)(F)F)=NN1c1ccccc1F [I29] | 2.6 µM and ~2.6 µM | 2.63 µM | inhibited PDI activity |  |  |  | selectively improved the mitochondrial network | did not change substantially | more than two times lower; also recorded: twofold lower; also recorded: approximately twofold higher activity; also recorded: twofold increase in potency | highest potency | reduced more efficiently ERO1
